How the values were obtained:
Test in all cases: cells
[1] = system: COLO-741; format: functional, cell-based, Homo sapiens; conditions: Homo sapiens, COLO-741
Description: SANGER: Inhibition of human COLO-741 cell growth in a cell viability assay.

[2] = system: COR-L23; format: functional, cell-based, Homo sapiens; conditions: Homo sapiens, COR-L23;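 further: cell viability assay measuring how strongly compounds suppress growth of COR-L23 cells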
Description: SANGER: Inhibition of human COR-L23 cell growth in a cell viability assay.

[3] = system: EFO-21; format: functional, cell-based, Homo sapiens; conditions: Homo sapiens, EFO-21;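 further: growth inhibition of EFO-21 cells measured with a viability assay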
Description: SANGER: Inhibition of human EFO-21 cell growth in a cell viability assay.

[4] = system: ES4; format: functional, cell-based, Homo sapiens; conditions: Homo sapiens, ES4;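 further: growth inhibition of human ES4 cells, read out by a cell viability assay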
Description: SANGER: Inhibition of human ES4 cell growth in a cell viability assay.

[5] = system: G-401; format: functional, cell-based, Homo sapiens; conditions: Homo sapiens, G-401
Description: SANGER: Inhibition of human G-401 cell growth in a cell viability assay.

[6] = system: GCT; format: functional, cell-based, Homo sapiens; conditions: Homo sapiens, GCT;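 further: GCT cell line proliferation inhibition, read out with a cell viability assay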
Description: SANGER: Inhibition of human GCT cell growth in a cell viability assay.

[7] = system: HCC1419; format: functional, cell-based, Homo sapiens; conditions: Homo sapiens, HCC1419;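 further: growth inhibition of human HCC1419 cells, read out as cell viability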
Description: SANGER: Inhibition of human HCC1419 cell growth in a cell viability assay.

[8] = system: HOS; format: functional, cell-based, Homo sapiens; conditions: Homo sapiens, HOS;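 further: growth inhibition of human HOS cells, read out with a cell viability assay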
Description: SANGER: Inhibition of human HOS cell growth in a cell viability assay.

[9] = system: Huh-7; format: functional, cell-based, Homo sapiens; conditions: Homo sapiens, Huh-7;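 further: HuH-7 cell growth inhibition, read out with a cell viability assay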
Description: SANGER: Inhibition of human HuH-7 cell growth in a cell viability assay.

[10] = system: IGR-1; format: functional, cell-based, Homo sapiens; conditions: Homo sapiens, IGR-1;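 further: growth inhibition of human IGR-1 cells, read out with a cell viability assay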
Description: SANGER: Inhibition of human IGR-1 cell growth in a cell viability assay.

[11] = system: IST-MEL1; format: functional, cell-based, Homo sapiens; conditions: Homo sapiens, IST-MEL1;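 further: growth inhibition of the cell line, read out with a cell viability assay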
Description: SANGER: Inhibition of human IST-MEL1 cell growth in a cell viability assay.

[12] = system: KLE; format: functional, cell-based, Homo sapiens; conditions: Homo sapiens, KLE;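 further: growth inhibition of human KLE cells, read out with a cell viability assay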
Description: SANGER: Inhibition of human KLE cell growth in a cell viability assay.

[13] = system: KYSE-150 cell line; format: functional, cell-based, Homo sapiens; conditions: Homo sapiens, KYSE-150;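 further: growth inhibition of human KYSE-150 cells, read out with a cell viability assay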
Description: SANGER: Inhibition of human KYSE-150 cell growth in a cell viability assay.

[14] = system: KYSE-270; format: functional, cell-based, Homo sapiens; conditions: Homo sapiens, KYSE-270;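 further: cell growth inhibition measured with a viability assay in the human KYSE-270 line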
Description: SANGER: Inhibition of human KYSE-270 cell growth in a cell viability assay.

[15] = system: LCLC-103H cell line; format: functional, cell-based, Homo sapiens; conditions: Homo sapiens, LCLC-103H
Description: SANGER: Inhibition of human LCLC-103H cell growth in a cell viability assay.

[16] = system: LS-513; format: functional, cell-based, Homo sapiens; conditions: Homo sapiens, LS-513
Description: SANGER: Inhibition of human LS-513 cell growth in a cell viability assay.

[17] = system: LU-134-A; format: functional, cell-based; conditions: Homo sapiens
Description: SANGER: Inhibition of human LU-134-A cell growth in a cell viability assay.

[18] = system: MC-IXC; format: functional, cell-based, Homo sapiens; conditions: Homo sapiens, MC-IXC;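 further: growth inhibition of MC-IXC cells, read out with a cell viability assay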
Description: SANGER: Inhibition of human MC-IXC cell growth in a cell viability assay.

[19] = system: ME-180; format: functional, cell-based; conditions: Homo sapiens;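 further: cell viability assay measuring growth inhibition of ME-180 cells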
Description: SANGER: Inhibition of human ME-180 cell growth in a cell viability assay.

[20] = system: MG-63; format: functional, cell-based, Homo sapiens; conditions: Homo sapiens, MG-63;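 further: growth inhibition of human MG-63 cells, read out with a cell viability assay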
Description: SANGER: Inhibition of human MG-63 cell growth in a cell viability assay.

[21] = system: NCI-H1092; format: functional, cell-based; conditions: Homo sapiens;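 further: cell growth inhibition measured with a cell viability assay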
Description: SANGER: Inhibition of human NCI-H1092 cell growth in a cell viability assay.

[22] = system: NCI-H1395; format: functional, cell-based, Homo sapiens; conditions: Homo sapiens, NCI-H1395;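 further: cell viability assay read-out quantifying reduced proliferation of human NCI-H1395 cells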
Description: SANGER: Inhibition of human NCI-H1395 cell growth in a cell viability assay.

[23] = system: NCI-H1755; format: functional, cell-based, Homo sapiens; conditions: Homo sapiens, NCI-H1755;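 further: cell viability readout used to measure growth inhibition of NCI-H1755 cells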
Description: SANGER: Inhibition of human NCI-H1755 cell growth in a cell viability assay.

[24] = system: NCI-H1793; format: functional, cell-based, Homo sapiens; conditions: Homo sapiens, NCI-H1793;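 further: cell growth inhibition, read out by a cell viability assay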
Description: SANGER: Inhibition of human NCI-H1793 cell growth in a cell viability assay.

[25] = system: NCI-H2087; format: functional, cell-based, Homo sapiens; conditions: Homo sapiens, NCI-H2087;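 further: growth inhibition determined with a cell viability readout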
Description: SANGER: Inhibition of human NCI-H2087 cell growth in a cell viability assay.

[26] = system: NCI-H2126; format: functional, cell-based, Homo sapiens; conditions: Homo sapiens, NCI-H2126;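 further: growth inhibition of the cancer cell line, determined with a cell viability readout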
Description: SANGER: Inhibition of human NCI-H2126 cell growth in a cell viability assay.

[27] = system: NCI-H2452; format: functional, cell-based, Homo sapiens; conditions: Homo sapiens, NCI-H2452;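 further: growth inhibition of NCI-H2452 cells, read out with a cell viability assay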
Description: SANGER: Inhibition of human NCI-H2452 cell growth in a cell viability assay.

[28] = system: NCI-H747; format: functional, cell-based; conditions: Homo sapiens;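 further: growth inhibition of human NCI-H747 cells, read out by a cell viability assay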
[29] = system: OVCAR-5; format: functional, cell-based, Homo sapiens; conditions: Homo sapiens, OVCAR-5;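 further: growth inhibition of human OVCAR-5 cells, read out with a cell viability assay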
Description: SANGER: Inhibition of human OVCAR-5 cell growth in a cell viability assay.

[30] = system: P30-OHK; format: functional, cell-based; conditions: Homo sapiens;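 further: growth inhibition of the P30-OHK cell line, read out with a cell viability assay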
Description: SANGER: Inhibition of human P30-OHK cell growth in a cell viability assay.

[31] = system: PA-1; format: functional, cell-based, Homo sapiens; conditions: Homo sapiens, PA-1;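 further: IC50 for suppression of PA-1 cell proliferation, determined with a cell viability read-out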
Description: SANGER: Inhibition of human PA-1 cell growth in a cell viability assay.

[32] = system: QIMR-WIL; format: functional, cell-based; conditions: Homo sapiens;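 further: growth inhibition of QIMR-WIL cells, read out with a cell viability assay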
Description: SANGER: Inhibition of human QIMR-WIL cell growth in a cell viability assay.

[33] = system: RH-1; format: functional, cell-based, Homo sapiens; conditions: Homo sapiens, RH-1;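 further: growth inhibition of human RH-1 cells, read out with a cell viability assay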
[34] = system: Ramos-2G6-4C10; format: functional, cell-based; conditions: Homo sapiens;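 further: growth inhibition of the cell line, measured by a cell viability read-out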
Description: SANGER: Inhibition of human Ramos-2G6-4C10 cell growth in a cell viability assay.

[35] = system: SF-268; format: functional, cell-based, Homo sapiens; conditions: Homo sapiens, SF-268;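 further: growth inhibition of SF-268 cells determined with a cell viability assay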
Description: SANGER: Inhibition of human SF268 cell growth in a cell viability assay.

[36] = system: SK-MEL-30; format: functional, cell-based; conditions: Homo sapiens;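 further: growth inhibition of SK-MEL-30 cells, determined with a cell viability assay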
Description: SANGER: Inhibition of human SK-MEL-30 cell growth in a cell viability assay.

[37] = system: SK-NEP-1; format: functional, cell-based; conditions: Homo sapiens;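 further: growth inhibition of human SK-NEP-1 cells, read out by a cell viability assay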
Description: SANGER: Inhibition of human SK-NEP-1 cell growth in a cell viability assay.

[38] = system: SW1417; format: functional, cell-based, Homo sapiens; conditions: Homo sapiens, SW1417;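 further: growth inhibition of human SW1417 cells, read out with a cell viability assay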
Description: SANGER: Inhibition of human SW1417 cell growth in a cell viability assay.

[39] = system: SW1573; format: functional, cell-based, Homo sapiens; conditions: Homo sapiens, SW1573;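 further: growth inhibition of SW1573 cells, read out with a cell viability assay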
Description: SANGER: Inhibition of human SW1573 cell growth in a cell viability assay.

[40] = system: SW1783; format: functional, cell-based; conditions: Homo sapiens;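 further: cell growth inhibition measured with a viability assay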
Description: SANGER: Inhibition of human SW1783 cell growth in a cell viability assay.

[41] = system: SW684; format: functional, cell-based, Homo sapiens; conditions: Homo sapiens, SW684;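 further: growth inhibition of human SW684 cells, measured by a cell viability assay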
Description: SANGER: Inhibition of human SW684 cell growth in a cell viability assay.

[42] = system: SW948; format: functional, cell-based, Homo sapiens; conditions: Homo sapiens, SW948;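 further: growth inhibition of SW948 cells, read out with a cell viability assay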
Description: SANGER: Inhibition of human SW948 cell growth in a cell viability assay.

[43] = system: T-24; format: functional, cell-based, Homo sapiens; conditions: Homo sapiens, T-24;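 further: growth inhibition of T-24 cells, read out with a cell viability assay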
Description: SANGER: Inhibition of human T-24 cell growth in a cell viability assay.

[44] = system: 639-V; format: functional, cell-based, Homo sapiens; conditions: Homo sapiens, 639-V;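 further: growth inhibition of 639-V cells, read out with a cell viability assay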
Description: SANGER: Inhibition of human 639-V cell growth in a cell viability assay.

[45] = system: A-375; format: functional, cell-based, Homo sapiens; conditions: Homo sapiens, A-375;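 further: growth inhibition of A375 cells, read out with a cell viability assay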
Description: SANGER: Inhibition of human A375 cell growth in a cell viability assay.

[46] = system: A388; format: functional, cell-based, Homo sapiens; conditions: Homo sapiens, A388;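 further: growth inhibition of human A388 cells, read out with a cell viability assay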
Description: SANGER: Inhibition of human A388 cell growth in a cell viability assay.

[47] = system: C8166; format: functional, cell-based; conditions: Homo sapiens;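 further: growth inhibition of human C8166 cells measured by a cell viability assay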
Description: SANGER: Inhibition of human C8166 cell growth in a cell viability assay.

[48] = system: CAL-120; format: functional, cell-based, Homo sapiens; conditions: Homo sapiens, CAL-120;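 further: cell growth inhibition, read out as cell viability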
Description: SANGER: Inhibition of human CAL-120 cell growth in a cell viability assay.

[49] = system: CAL-51; format: functional, cell-based, Homo sapiens; conditions: Homo sapiens, CAL-51;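 further: human CAL-51 cell line, growth inhibition read out via a cell viability assay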
Description: SANGER: Inhibition of human CAL-51 cell growth in a cell viability assay.

[50] = system: U-87 MG; format: functional, cell-based, U-87MG ATCC; conditions: Homo sapiens;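 further: growth inhibition of the cells measured with a viability assay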
Description: SANGER: Inhibition of human U-87-MG cell growth in a cell viability assay.

[51] = system: COLO-668; format: functional, cell-based, Homo sapiens; conditions: Homo sapiens, COLO-668
Description: SANGER: Inhibition of human COLO-668 cell growth in a cell viability assay.

## O=C(c1cc(Cc2n[nH]c(=O)c3ccccc23)ccc1F)N1CCN(C(=O)C2CC2)CC1 [OLAPARIB]
[1]
  IC50: > 5 µM
[2]
  IC50: > 5 µM
[3]
  IC50: > 5 µM
[4]
  IC50: > 5 µM
[5]
  IC50: > 5 µM
[6]
  IC50: > 5 µM
[7]
  IC50: > 5 µM
[8]
  IC50: > 5 µM
[9]
  IC50: > 5 µM
[10]
  IC50: > 5 µM
[11]
  IC50: > 5 µM
[12]
  IC50: > 5 µM
[13]
  IC50: > 5 µM
[14]
  IC50: > 5 µM
[15]
  IC50: > 5 µM
[16]
  IC50: > 5 µM
[17]
  IC50: > 5 µM
[18]
  IC50: 3.63 µM
[19]
  IC50: > 5 µM
[20]
  IC50: > 5 µM
[21]
  IC50: > 5 µM
[22]
  IC50: > 5 µM
[23]
  IC50: > 5 µM
[24]
  IC50: > 5 µM
[25]
  IC50: > 5 µM
[26]
  IC50: > 5 µM
[27]
  IC50: > 5 µM
[28]
  IC50: > 5 µM
[29]
  IC50: > 5 µM
[30]
  IC50: > 5 µM
[31]
  IC50: 4.25 µM
[32]
  IC50: > 5 µM
[33]
  IC50: > 5 µM
[34]
  IC50: > 5 µM
[35]
  IC50: > 5 µM
[36]
  IC50: > 5 µM
[37]
  IC50: > 5 µM
[38]
  IC50: > 5 µM
[39]
  IC50: > 5 µM
[40]
  IC50: > 5 µM
[41]
  IC50: > 5 µM
[42]
  IC50: > 5 µM
[43]
  IC50: > 5 µM
[44]
  IC50: > 5 µM
[45]
  IC50: > 5 µM
[46]
  IC50: > 5 µM
[47]
  IC50: > 5 µM
[48]
  IC50: > 5 µM
[49]
  IC50: > 5 µM
[50]
  IC50: > 5 µM
[51]
  IC50: > 5 µM

## C=CCc1cccc(/C=N/NC(=O)CN2CCN(Cc3ccccc3)CC2)c1O [PAC-1]
[1]
  IC50: > 2.56 µM
[2]
  IC50: > 2.56 µM
[3]
  IC50: > 2.56 µM
[4]
  IC50: > 2.56 µM
[5]
  IC50: 1.01 µM
[6]
  IC50: > 2.56 µM
[7]
  IC50: > 2.56 µM
[8]
  IC50: > 2.56 µM
[9]
  IC50: > 2.56 µM
[10]
  IC50: > 2.56 µM
[11]
  IC50: > 2.56 µM
[12]
  IC50: > 2.56 µM
[13]
  IC50: > 2.56 µM
[14]
  IC50: 2.46 µM
[15]
  IC50: 1.12 µM
[16]
  IC50: > 2.56 µM
[17]
  IC50: > 2.56 µM
[18]
  IC50: > 2.56 µM
[19]
  IC50: > 2.56 µM
[20]
  IC50: > 2.56 µM
[21]
  IC50: > 2.56 µM
[22]
  IC50: > 2.56 µM
[23]
  IC50: > 2.56 µM
[24]
  IC50: > 2.56 µM
[25]
  IC50: > 2.56 µM
[26]
  IC50: > 2.56 µM
[27]
  IC50: > 2.56 µM
[28]
  IC50: > 2.56 µM
[29]
  IC50: > 2.56 µM
[30]
  IC50: > 2.56 µM
[31]
  IC50: > 2.56 µM
[32]
  IC50: > 2.56 µM
[33]
  IC50: > 2.56 µM
[34]
  IC50: > 2.56 µM
[35]
  IC50: > 2.56 µM
[36]
  IC50: > 2.56 µM
[37]
  IC50: > 2.56 µM
[38]
  IC50: > 2.56 µM
[39]
  IC50: > 2.56 µM
[40]
  IC50: > 2.56 µM
[41]
  IC50: > 2.56 µM
[42]
  IC50: > 2.56 µM
[43]
  IC50: > 2.56 µM
[44]
  IC50: > 2.56 µM
[45]
  IC50: 0.869 µM
[46]
  IC50: > 2.56 µM
[47]
  IC50: 1.22 µM
[48]
  IC50: > 2.56 µM
[49]
  IC50: > 2.56 µM
[50]
  IC50: > 2.56 µM
[51]
  IC50: > 2.56 µM

## Cc1ccc(Nc2nccc(N(C)c3ccc4c(C)n(C)nc4c3)n2)cc1S(N)(=O)=O [PAZOPANIB]
[1]
  IC50: > 8 µM
[2]
  IC50: > 8 µM
[3]
  IC50: > 8 µM
[4]
  IC50: > 8 µM
[5]
  IC50: 1.46 µM
[6]
  IC50: > 8 µM
[7]
  IC50: > 8 µM
[8]
  IC50: > 8 µM
[9]
  IC50: 7.69 µM
[10]
  IC50: > 8 µM
[11]
  IC50: > 8 µM
[12]
  IC50: > 8 µM
[13]
  IC50: > 8 µM
[14]
  IC50: > 8 µM
[15]
  IC50: 1.45 µM
[16]
  IC50: > 8 µM
[17]
  IC50: > 8 µM
[18]
  IC50: 1.12 µM
[19]
  IC50: > 8 µM
[20]
  IC50: 1 µM
[21]
  IC50: > 8 µM
[22]
  IC50: > 8 µM
[23]
  IC50: > 8 µM
[24]
  IC50: > 8 µM
[25]
  IC50: > 8 µM
[26]
  IC50: > 8 µM
[27]
  IC50: > 8 µM
[28]
  IC50: > 8 µM
[29]
  IC50: > 8 µM
[30]
  IC50: 5.47 µM
[31]
  IC50: > 8 µM
[32]
  IC50: > 8 µM
[33]
  IC50: > 8 µM
[34]
  IC50: > 8 µM
[35]
  IC50: > 8 µM
[36]
  IC50: > 8 µM
[37]
  IC50: > 8 µM
[38]
  IC50: > 8 µM
[39]
  IC50: > 8 µM
[40]
  IC50: > 8 µM
[41]
  IC50: > 8 µM
[42]
  IC50: > 8 µM
[43]
  IC50: > 8 µM
[44]
  IC50: > 8 µM
[45]
  IC50: > 8 µM
[46]
  IC50: > 8 µM
[47]
  IC50: > 8 µM
[48]
  IC50: > 8 µM
[49]
  IC50: > 8 µM
[50]
  IC50: > 8 µM
[51]
  IC50: > 8 µM

## CN(c1ncccc1CNc1nc(Nc2ccc3c(c2)CC(=O)N3)ncc1C(F)(F)F)S(C)(=O)=O [PF-00562271]
[1]
  IC50: > 2.56 µM
[2]
  IC50: > 2.56 µM
[3]
  IC50: > 2.56 µM
[4]
  IC50: > 2.56 µM
[5]
  IC50: > 2.56 µM
[6]
  IC50: > 2.56 µM
[7]
  IC50: > 2.56 µM
[8]
  IC50: > 2.56 µM
[9]
  IC50: > 2.56 µM
[10]
  IC50: > 2.56 µM
[11]
  IC50: > 2.56 µM
[12]
  IC50: > 2.56 µM
[13]
  IC50: 1.35 µM
[14]
  IC50: 1.05 µM
[15]
  IC50: 1.56 µM
[16]
  IC50: > 2.56 µM
[17]
  IC50: > 2.56 µM
[18]
  IC50: > 2.56 µM
[19]
  IC50: > 2.56 µM
[20]
  IC50: 0.806 µM
[21]
  IC50: > 2.56 µM
[22]
  IC50: > 2.56 µM
[23]
  IC50: > 2.56 µM
[24]
  IC50: > 2.56 µM
[25]
  IC50: > 2.56 µM
[26]
  IC50: > 2.56 µM
[27]
  IC50: > 2.56 µM
[28]
  IC50: > 2.56 µM
[29]
  IC50: > 2.56 µM
[30]
  IC50: > 2.56 µM
[31]
  IC50: > 2.56 µM
[32]
  IC50: > 2.56 µM
[33]
  IC50: > 2.56 µM
[34]
  IC50: > 2.56 µM
[35]
  IC50: > 2.56 µM
[36]
  IC50: > 2.56 µM
[37]
  IC50: > 2.56 µM
[38]
  IC50: > 2.56 µM
[39]
  IC50: > 2.56 µM
[40]
  IC50: > 2.56 µM
[41]
  IC50: > 2.56 µM
[42]
  IC50: > 2.56 µM
[43]
  IC50: > 2.56 µM
[44]
  IC50: > 2.56 µM
[45]
  IC50: > 2.56 µM
[46]
  IC50: > 2.56 µM
[47]
  IC50: > 2.56 µM
[48]
  IC50: > 2.56 µM
[49]
  IC50: > 2.56 µM
[50]
  IC50: > 2.56 µM
[51]
  IC50: > 2.56 µM
